# Test results: a melting point compilation (Tetko et al.; mined from patent text by program, amines drawn as free bases though some values may be those of a salt)
row,melting point [°C],Structure (SMILES)
1,72 to 73,N#Cc1ncccc1CCc1cccc(Cl)c1
2,115 to 117,CNC=C1C(=S)C(C)(C)OC1(C)C
3,168 to 169,O=C1Nc2ccccc2N(C(=O)N2CCCC(CCN3CCCCC3)C2)c2ncccc21 (stereo not drawn)
4,254 to 256,CC(=O)NCCc1ccc(NC(=O)C=C2CC(C(=O)O)Nc3cc(Cl)cc(Cl)c32)cc1 (racemic)
5,198 to 200,CCOC(=O)c1sc(C(=O)OCC)c2c1OC=CCO2
6,240 to 248,CCCC1(CCC)c2cc(-c3nc4cc(C)ccc4o3)ccc2-c2cc(OC)c(-c3nc4cc(C)ccc4o3)cc21
7,143 to 145,CNc1cc(Br)cc(S(=O)(=O)c2ccccc2)c1
8,142,CN(C)S(=O)(=O)c1ccc2c(c1)CCC2=O
9,43,CCOc1ccc(C(=O)C#N)cc1
10,175 to 176,CCn1ncc2c3onc(-c4ccc(F)cc4)c3cnc21
11,22 to 23,C=CCOc1ccc(C(=C)C)cc1
12,166 to 173,CC(C)(N)c1ccc(-c2nc(Nc3ccc(CCN4CCOCC4)cc3)ncc2Cl)cc1
13,131 to 133,O=C1c2ccc(O)cc2OCN1CCO[N+](=O)[O-]
14,187 to 189,Cc1cc(C)n(-c2ccc(C#N)nn2)n1
15,168,COc1ccc(S(=O)(=O)C2(C(=O)NO)CCN(Cc3ccc(-c4ccccc4)cc3)CC2)cc1
16,116 to 118,CC(C)(C)NC(=O)C(C)(C)C
17,167 to 168,O=C(O)[C@H]1CC[C@H](N2CCC(Oc3ccc(Cl)c(Cl)c3)CC2)CC1
18,42 to 43,CC(C)C[C@H](NC(=O)OCCC1c2ccccc2-c2ccccc21)C(=O)O
19,240 to 242,Cc1ccc(-n2c(-c3ccc(Br)cc3)c(Br)c(Br)c2-c2ccc(Br)cc2)cc1
20,46 to 47,CCCCCCCCCCCCCCc1ccc(CCCCCC)c(OCC(O)CO)c1 (stereo not drawn)
21,189,O=[N+]([O-])c1ccc(SSn2nccn2)c(C(Cl)(Cl)Cl)c1
22,127,Cc1c(CC(=O)NCCCO[N+](=O)[O-])cc(-c2ccc(S(C)(=O)=O)cc2)n1-c1ccc(F)cc1
23,299,Cc1[nH]c(=O)[nH]c1C(=O)C=Cc1ccccc1
24,242 to 244,N#CCc1cc(O)cc2cc(-c3ccc(O)c(F)c3)oc12

row,melting point [°C],Structure (SMILES)
1,285 to 287,CC(C)CNC(=O)c1c[nH]c2ncc(-c3nn(C)c4cc(F)ccc34)nc12
2,115 to 116,CCCCc1nc2c(C)cccc2n1Cc1ccc([N+](=O)[O-])cc1
3,94 to 96.5,S=c1[nH]ccn1CCCc1cccs1
4,188 to 193,Cc1ccc(C(C#N)(Cc2c[nH]cn2)c2ccccc2)cc1 (stereo not drawn)
5,129 to 130,O=C(NCc1cc(C(F)(F)F)cc(C(F)(F)F)c1)c1c(-c2ccccc2)c2cccnc2c(=O)n1CCCO
6,58 to 59,C=CCOC(=O)c1ccc(N)cc1O
7,90,CC(=O)OCCOCCN1CCC(CNC(=O)[C@@H]2CCCN2S(=O)(=O)c2ccc(Cl)c(COc3cccc4c(-n5ccnc5)cc(C)nc34)c2Cl)CC1
8,215 to 217,Nc1ncnc2c1ncn2C1CC(C=Cc2ccccc2)C(CO)O1 (stereo not drawn)
9,187 to 189,O=P1(c2ccc(C(F)(F)F)cc2)c2ccccc2CN1c1ccccc1 (stereo not drawn)
10,249 to 250,S=c1nc(-c2ccc(-c3ccccc3)cc2)[nH]n1Cc1ccccc1
11,192 to 194,CC(C)c1cc(O)cc2cc(-c3ccc(O)cc3)oc12
12,66 to 67,O=c1c2c(oc3ccccc13)O2
13,115 to 117,COc1ccc(C(Cc2ccc(OCCc3nc(-c4ccccc4)oc3C)cc2)C(=O)O)cc1 (stereo not drawn)
14,225 to 227,Cc1nc(NC(=O)NC(=O)c2c(Cl)cccc2Cl)cnc1-c1ccc(Br)cc1
15,134 to 138,Nc1nc2c(s1)CCN(CC1=Cc3ccccc3C1)CC2
16,132 to 134,CN1C(=O)C(C(=O)NCCCCCC(=O)O)S(=O)(=O)c2ccccc21 (stereo not drawn)
17,94 to 95,COC(=O)CC(CNC(C)=O)c1cccc2ccc(OC)cc12 (stereo not drawn)
18,142 to 144,O=C(O)c1cnccc1CCCOc1cccnc1Oc1cccc(Cl)c1
19,52 to 55,Cc1ccc(C(=O)c2cccc(C(C)C#N)c2)cc1 (stereo not drawn)
20,205 to 206,COc1cc2c3ccc(OC)c(OC)c3n(S(=O)(=O)c3ccccc3)c2cc1OC
21,146 to 147,c1cc(-c2ccc3[nH]cc4c3c2C[C@@H](N(CC2CC2)CC2CC2)C4)on1
22,105,CC1(O)c2ccccc2CCC1OS(=O)(=O)CC12CCC(CC1=O)C2(C)C (stereo not drawn)
23,131 to 132,CC(=O)CSC1C2=C(CCCC2)C(=O)N1c1ccc(Cl)cc1F (stereo not drawn)
24,123 to 124,O=C(OCc1ccccc1)C1CCCc2c1c1ccccc1n2C(=O)c1ccc(Cl)cc1 (stereo not drawn)

row,melting point [°C],Structure (SMILES)
1,128 to 129,COCC(C)Nc1cc(-c2ccnc(Nc3cccc(Cl)c3)n2)cc(Cl)n1 (stereo not drawn)
2,194 to 196,O=C(O)CCc1cccc(Oc2cccc(-c3nnc(Nc4ccc(Cl)c(Cl)c4)s3)c2)c1
3,174 to 176,CC(C)c1cccc(C(C)C)c1NC(=O)Cc1ccccc1NCC(c1ccccc1)c1ccccc1
4,179 to 181,CC(C)(C)OC(=O)c1cn(-c2ccc(Cl)cc2)c(-c2ccc(Cl)cc2Cl)n1
5,101 to 104,CCc1ccc(NC(=O)Nc2cc(C(C)(C)C)sc2C(=O)NC)cc1
6,163 to 168,CC(=NNC(=O)c1cccc([N+](=O)[O-])c1O)c1ccccc1
7,158 to 159,CCOC(=O)CCNC(=O)Nc1ccccc1CCc1cc(C(C)(C)C)c(O)c(C(C)(C)C)c1
8,76 to 82,Cc1ccc(S(=O)(=S)OCCCCCCCCCCOS(=O)(=S)c2ccc(C)cc2)cc1 (stereo not drawn)
9,114 to 117,Nc1cccc(C(=O)c2cccc(C(=O)c3cccc(N)c3)c2)c1
10,68 to 70,Cc1cc(C)cc(-c2cccc3ccccc23)c1
11,68 to 72,C[Si](C)(C)c1cc(Cl)sc1C(=O)NCCCl
12,165 to 168,CC1(C)CC(C)(C#N)c2cn(-c3ccc(F)cc3)c(C=O)c21 (stereo not drawn)
13,51 to 62,C[C@@H](N(CCOCc1ccccc1)C(=O)c1ccc(OCC(F)(F)C(F)F)cc1)[C@](O)(Cn1cncn1)c1ccc(Cl)cc1Cl (relative stereo)
14,176 to 177,COc1ccc(C(C#N)CNC(=O)C(N)=O)cc1OC1CCCC1 (stereo not drawn)
15,122 to 124,CCC(C)(Cc1c[nH]c2ccccc12)NC=O (stereo not drawn)
16,59 to 62,C=C1CCC2C3CCc4cc(OC)ccc4C3CCC12C (stereo not drawn)
17,77 to 79,CCCOc1ccccc1C(=O)CCC(=O)O
18,> 300,CCc1[nH]n(C2CCCC2)c2nc(-c3ccc(Cl)cc3O)nc(=O)c1-2
19,> 360,Nc1c(C(F)(F)F)cc(Cl)c2[nH]c(=O)c(=O)[nH]c12
20,166 to 168,"COc1ccccc1Sc1ccc2c(c1)CCC1N(C)C(=O)CCC21C (single isomer, unassigned; (+))"
21,125 to 126,O=C(O)Cc1ccc(OCCCCc2cc(-c3ccc(C(F)(F)F)cc3)no2)cc1
22,186 to 192,N#CC1CN(C(=O)[C@H](NC(=O)c2c[nH]c3ncc(-c4ccc(N5CCOCC5)cc4)nc23)C2CC2)C1
23,116,COCCNC(=O)c1cccc(-c2ccc3c(c2)C(c2cc(Cl)ccc2Cl)CC3)c1 (stereo not drawn)
24,205 to 206,O=C1N(C/C=C/c2ccccc2[N+](=O)[O-])CCN1c1ccncc1

row,melting point [°C],Structure (SMILES)
1,> 300,Cn1c(=O)c2c(C(=O)O)nc(O)n2c2ccccc21
2,58 to 60,CCCCCCCN(CCCCCSc1nc(-c2ccccc2)c(-c2ccccc2)[nH]1)c1ncnc2nc[nH]c12
3,158 to 160,COc1ccc(NC(=O)c2ccc(Br)cc2)cc1N1CCN(C)CC1
4,165 to 168,CCCNCCc1ccc(NS(=O)(=O)c2ccc(Cl)cc2Cl)cc1
5,260,CC(C)(C)c1cc(C=C2SC(=S)NC2=O)cc(C(C)(C)C)c1O
6,132 to 134,O=C1Cc2ccc(SCc3ccccc3)cc2N1
7,83 to 85,CC(C)[C@@H](CO)NS(=O)(=O)c1ccc(Cl)cc1
8,214 to 215,CC(=O)c1ccc(OC(=O)c2c3ccccc3nc3ccccc23)cc1
9,63,CCCCOc1ccc(Cc2nn(-c3ccccc3Cl)c(=O)o2)cc1
10,188 to 191,O=C(NC(SC(=O)c1ccccc1)C(=O)NC(Cc1c[nH]c2ccccc12)C(=O)O)c1ccccc1 (stereo not drawn)
11,316 to 318,CCCCCCCCCCc1c(C(=O)O)sc2c1sc1c3sc(C(=O)O)c(CCCCCCCCCC)c3sc21
12,> 250,CCOC(=O)CC[C@H](NC(=O)c1ccc(CCC2CNc3nc(NC(=O)C(C)(C)C)nc(O)c3C2)cc1)C(=O)OCC (stereo partly drawn)
13,78 to 80,COc1ccc2c(c1Cl)C=CN(C(C)=O)C2
14,134,Cc1nc(NC(=O)c2cnn3c(C(F)F)cc(-c4ccc(C(F)(F)F)cc4)nc23)sc1S(=O)(=O)NCCO
15,132,CCCC(c1ccc(C(N)=O)cc1)n1ccnc1 (stereo not drawn)
16,191 to 193,CS(=O)(=O)c1ccc(-c2cnn(C3CCCC3)c(=O)c2-c2ccc(F)cc2)cc1
17,125 to 128,Fc1ccc(-c2cc(N3CCN(C4CC4)CC3)nc3c2CCCCCC3)cc1
18,78,O=S1(=O)c2cccc3cccc(c23)N1CCCCl
19,68,CN(CCNC(=O)NCCCOc1cccc(CN2CCCCC2)c1)CCN(Cc1ccc(F)cc1)c1ccccn1
20,211 to 212,COc1ccc(CSc2nnc(-c3ccc4nccn4c3)o2)cc1C#N
21,120,Cc1ccc(-c2nccc3c(CCl)cccc23)cc1
22,112 to 114,O=C(CC1CSCCC1=O)c1ccc(F)cc1 (stereo not drawn)

row,Structure (SMILES),melting point [°C]
1,O=C1NC(=O)C(=Cc2ccccc2)C(=O)N1,> 258
2,C=C(C)c1cn(-c2c(Cl)cc(C(F)(F)F)cc2Cl)nc1C#N,63 to 64
3,Cc1nc(C(N)=O)c2n1-c1ccc(Cl)cc1C(c1ccccc1F)=NC2,300 to 305
4,Cc1c(C(=O)c2ccc(Cl)c(S(N)(=O)=O)c2)c2ccccc2n1C,247 to 249
